“And” between values parts separate entries of the source, which are not always exact repeats. Equal entries are not always repeated. Toxic doses and inconclusive results are not listed.
System: L1210 leukemia ip in BDF1 mice, survival T/C
Assay: NCI In Vivo Anticancer Drug Screen. Data for tumor model L1210 Leukemia (intraperitoneal) in B6D2F1 (BDF1) mice
Conditions: higher = longer survival
How it was run: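 Mice bearing the transplanted tumor received compound or vehicle. Survival of the treated group was divided by that of the vehicle-treated control group to give the ratio.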

[1] = endpoint: mean survival time, dose: 100.0 mg/kg/injection, schedule: Q01DX001 (ip), vehicle: saline
[2] = endpoint: mean survival time, dose: 200.0 mg/kg/injection, schedule: Q01DX001 (ip), vehicle: saline
[3] = endpoint: mean survival time, dose: 400.0 mg/kg/injection, schedule: Q01DX001 (ip), vehicle: saline
[4] = endpoint: mean survival time, dose: 100.0 mg/kg/injection, schedule: Q04DX003 (ip), vehicle: saline
[5] = endpoint: mean survival time, dose: 200.0 mg/kg/injection, schedule: Q04DX003 (ip), vehicle: saline
[6] = endpoint: mean survival time, dose: 400.0 mg/kg/injection, schedule: Q04DX003 (ip), vehicle: saline
[7] = endpoint: mean survival time, dose: 75.0 mg/kg/injection, schedule: Q01DX001 (ip), vehicle: saline
[8] = endpoint: mean survival time, dose: 150.0 mg/kg/injection, schedule: Q01DX001 (ip), vehicle: saline
[9] = endpoint: mean survival time, dose: 100.0 mg/kg/injection, schedule: Q01DX001 (ip), vehicle: saline with Tween-80
[10] = endpoint: mean survival time, dose: 200.0 mg/kg/injection, schedule: Q01DX001 (ip), vehicle: saline with Tween-80
[11] = endpoint: mean survival time, dose: 400.0 mg/kg/injection, schedule: Q01DX001 (ip), vehicle: saline with Tween-80
[12] = endpoint: mean survival time, dose: 100.0 mg/kg/injection, schedule: Q01DX001 (ip), vehicle: Klucel (hydroxypropylcellulose) (HPC)
[13] = endpoint: mean survival time, dose: 100.0 mg/kg/injection, schedule: Q04DX003 (ip), vehicle: Klucel (hydroxypropylcellulose) (HPC)
[14] = endpoint: mean survival time, dose: 200.0 mg/kg/injection, schedule: Q01DX001 (ip), vehicle: Klucel (hydroxypropylcellulose) (HPC)
[15] = endpoint: mean survival time, dose: 200.0 mg/kg/injection, schedule: Q04DX003 (ip), vehicle: Klucel (hydroxypropylcellulose) (HPC)
[16] = endpoint: mean survival time, dose: 400.0 mg/kg/injection, schedule: Q01DX001 (ip), vehicle: Klucel (hydroxypropylcellulose) (HPC)
[17] = endpoint: mean survival time, dose: 400.0 mg/kg/injection, schedule: Q04DX003 (ip), vehicle: Klucel (hydroxypropylcellulose) (HPC)

Structure (SMILES): OC(Cc1cnc2ccccc2n1)(C(F)(F)F)C(F)(F)F
- T/C (endpoint: mean survival time, dose: 100.0 mg/kg/injection, schedule: Q01DX009 (ip), vehicle: saline with Tween-80): 98 % of control
- T/C (endpoint: mean survival time, dose: 200.0 mg/kg/injection, schedule: Q01DX009 (ip), vehicle: saline with Tween-80): 94 % of control
- T/C (endpoint: mean survival time, dose: 400.0 mg/kg/injection, schedule: Q01DX009 (ip), vehicle: saline with Tween-80): 95 % of control

Structure (SMILES): CCCCCCCCCCCCCCNC(=O)Nc1ccc(Cl)c(Cl)c1
- T/C [1]: 95 % of control
- T/C [2]: 92 % of control
- T/C [3]: 95 % of control

Structure (SMILES): CC(=O)N1CCc2c(O)cccc2C1
- T/C [4]: 93 % of control
- T/C [5]: 93 % of control
- T/C [6]: 102 % of control

Structure (SMILES): CCCCCCCCCCCCCCCCSS(=O)(=O)c1ccc(C)cc1
- T/C [7]: 98 % of control
- T/C [8]: 91 % of control
- T/C (endpoint: mean survival time, dose: 300.0 mg/kg/injection, schedule: Q01DX001 (ip), vehicle: saline): 90 % of control

Structure (SMILES): C/C=C1\C[C@@H]2C(OC)Nc3cc(O)c(OC)cc3C(=O)N2C1 (some centres undefined)
- T/C (endpoint: mean survival time, dose: 0.02 mg/kg/injection, schedule: Q01DX009 (ip), vehicle: saline): 98 % of control
- T/C (endpoint: mean survival time, dose: 0.04 mg/kg/injection, schedule: Q01DX009 (ip), vehicle: saline): 98 % of control
- T/C (endpoint: mean survival time, dose: 0.09 mg/kg/injection, schedule: Q01DX009 (ip), vehicle: saline): 92 % of control
- T/C (endpoint: mean survival time, dose: 0.18 mg/kg/injection, schedule: Q01DX009 (ip), vehicle: saline): 101 % of control
- T/C (endpoint: mean survival time, dose: 0.18 mg/kg/injection, schedule: Q04DX002 (ip), vehicle: saline): 100 % of control
- T/C (endpoint: mean survival time, dose: 0.37 mg/kg/injection, schedule: Q04DX002 (ip), vehicle: saline): 100 % of control
- T/C (endpoint: mean survival time, dose: 0.75 mg/kg/injection, schedule: Q04DX002 (ip), vehicle: saline): 110 % of control

Structure (SMILES): O=C(O)c1ccc(/C=C\c2cccc(S(=O)(=O)F)c2)cc1
- T/C [9]: 100 % of control
- T/C [10]: 97 % of control
- T/C [11]: 92 % of control

Structure (SMILES): COC(=O)/C(=C\c1ccc(OC)cc1)CC(=O)O
- T/C [12]: 96 % of control
- T/C (endpoint: mean survival time, dose: 100.0 mg/kg/injection, schedule: Q01DX009 (ip), vehicle: Klucel (hydroxypropylcellulose) (HPC)): 101 % of control and 104 % of control
- T/C (endpoint: mean survival time, dose: 100.0 mg/kg/injection, schedule: Q04DX002 (ip), vehicle: Klucel (hydroxypropylcellulose) (HPC)): 98 % of control and 100 % of control
- T/C [13]: 90 % of control
- T/C [14]: 93 % of control
- T/C (endpoint: mean survival time, dose: 200.0 mg/kg/injection, schedule: Q01DX009 (ip), vehicle: Klucel (hydroxypropylcellulose) (HPC)): 95 % of control and 101 % of control
- T/C (endpoint: mean survival time, dose: 200.0 mg/kg/injection, schedule: Q04DX002 (ip), vehicle: Klucel (hydroxypropylcellulose) (HPC)): 95 % of control and 113 % of control
- T/C [15]: 97 % of control
- T/C [16]: 104 % of control
- T/C (endpoint: mean survival time, dose: 400.0 mg/kg/injection, schedule: Q01DX009 (ip), vehicle: Klucel (hydroxypropylcellulose) (HPC)): 93 % of control and 108 % of control
- T/C (endpoint: mean survival time, dose: 400.0 mg/kg/injection, schedule: Q04DX002 (ip), vehicle: Klucel (hydroxypropylcellulose) (HPC)): 102 % of control and 103 % of control
- T/C [17]: 97 % of control

Structure (SMILES): CN(C)c1ccc(/C=C/c2cc(N(C)C)nc3ccccc23)cc1
- T/C (endpoint: mean survival time, dose: 25.0 mg/kg/injection, schedule: Q01DX015 (ip), vehicle: carboxymethylcellulose (CMC)): 109 % of control
- T/C (endpoint: mean survival time, dose: 50.0 mg/kg/injection, schedule: Q01DX015 (ip), vehicle: carboxymethylcellulose (CMC)): 105 % of control
- T/C (endpoint: mean survival time, dose: 75.0 mg/kg/injection, schedule: Q01DX015 (ip), vehicle: carboxymethylcellulose (CMC)): 101 % of control

Structure (SMILES): CC(/C=C\c1ccc([N+](=O)[O-])cc1)=N\NC(=O)c1ccncc1
- T/C (endpoint: mean survival time, dose: 100.0 mg/kg/injection, schedule: Q04DX003 (ip), vehicle: saline with Tween-80): 98 % of control
- T/C (endpoint: mean survival time, dose: 200.0 mg/kg/injection, schedule: Q04DX003 (ip), vehicle: saline with Tween-80): 98 % of control
- T/C (endpoint: mean survival time, dose: 400.0 mg/kg/injection, schedule: Q04DX003 (ip), vehicle: saline with Tween-80): 96 % of control

Structure (SMILES): CC(C)(CS(C)(=O)=O)C(=O)OCC(=O)c1ccccc1
- T/C [13]: 108 % of control
- T/C [15]: 105 % of control
- T/C [17]: 105 % of control

Structure (SMILES): CCCCCCCCCCCCCC(CC1CCCCC1)CC1CCCCC1
- T/C [9]: 103 % of control
- T/C [10]: 102 % of control
- T/C [11]: 100 % of control

Structure (SMILES): O=[N+]([O-])c1ncn(Cc2ccccc2)c1Br
- T/C [13]: 91 % of control
- T/C [15]: 94 % of control
- T/C [17]: 89 % of control

Structure (SMILES): COc1ccc(C=NC2C(O)OC(CO)C(O)C2O)cc1 (centres undefined)
- T/C [1]: 106 % of control
- T/C [2]: 87 % of control
- T/C [3]: 93 % of control

Structure (SMILES): c1ccc(C23c4ccccc4C2c2ccccc23)nc1 (centres undefined)
- T/C (endpoint: mean survival time, dose: 12.5 mg/kg/injection, schedule: Q01DX009 (ip), vehicle: gum acacia): 104 % of control
- T/C (endpoint: mean survival time, dose: 25.0 mg/kg/injection, schedule: Q01DX009 (ip), vehicle: gum acacia): 100 % of control
- T/C (endpoint: mean survival time, dose: 50.0 mg/kg/injection, schedule: Q01DX009 (ip), vehicle: gum acacia): 100 % of control
- T/C (endpoint: mean survival time, dose: 100.0 mg/kg/injection, schedule: Q04DX003 (ip), vehicle: gum acacia): 97 % of control
- T/C (endpoint: mean survival time, dose: 200.0 mg/kg/injection, schedule: Q04DX003 (ip), vehicle: gum acacia): 97 % of control
- T/C (endpoint: mean survival time, dose: 400.0 mg/kg/injection, schedule: Q04DX003 (ip), vehicle: gum acacia): 104 % of control

Structure (SMILES): Cc1cc(=O)[nH]c2c(C)cc(Cc3cc(C)c4[nH]c(=O)cc(C)c4c3)cc12
- T/C (endpoint: mean survival time, dose: 100.0 mg/kg/injection, schedule: Q01DX001 (ip), vehicle: carboxymethylcellulose (CMC)): 96 % of control
- T/C (endpoint: mean survival time, dose: 200.0 mg/kg/injection, schedule: Q01DX001 (ip), vehicle: carboxymethylcellulose (CMC)): 101 % of control
- T/C (endpoint: mean survival time, dose: 400.0 mg/kg/injection, schedule: Q01DX001 (ip), vehicle: carboxymethylcellulose (CMC)): 103 % of control

Structure (SMILES): c1ccc(N/N=C(\c2ccccc2)c2ccccn2)cc1
- T/C [9]: 105 % of control
- T/C [10]: 94 % of control
- T/C [11]: 94 % of control

Structure (SMILES): NC(CSC(c1ccccc1)(c1ccccc1)c1ccc2ccccc2c1)C(=O)O (centres undefined)
- T/C (endpoint: mean survival time, dose: 0.74 mg/kg/injection, schedule: Q01DX009 (ip), vehicle: saline): 124 % of control
- T/C (endpoint: mean survival time, dose: 3.13 mg/kg/injection, schedule: Q01DX009 (ip), vehicle: saline): 159 % of control
- T/C (endpoint: mean survival time, dose: 6.25 mg/kg/injection, schedule: Q01DX009 (ip), vehicle: saline): 187 % of control
- T/C (endpoint: mean survival time, dose: 6.3 mg/kg/injection, schedule: Q01DX009 (ip), vehicle: other): 166 % of control
- T/C (endpoint: mean survival time, dose: 12.5 mg/kg/injection, schedule: Q01DX009 (ip), vehicle: saline): 108 % of control
- T/C (endpoint: mean survival time, dose: 25.0 mg/kg/injection, schedule: Q01DX009 (ip), vehicle: other): 94 % of control
- T/C (endpoint: mean survival time, dose: 25.0 mg/kg/injection, schedule: Q01DX009 (ip), vehicle: saline): 225 % of control
- T/C (endpoint: mean survival time, dose: 50.0 mg/kg/injection, schedule: Q01DX009 (ip), vehicle: saline): 103 % of control

Structure (SMILES): CC(=O)OCC1OC(NC(=O)NCCCl)C(OC(C)=O)C(OC(C)=O)C1OC(C)=O (centres undefined)
- T/C [12]: 101 % of control
- T/C [14]: 104 % of control
- T/C [16]: 104 % of control

Structure (SMILES): Nc1cccc2[nH]cnc12
- T/C (endpoint: mean survival time, dose: 100.0 mg/kg/injection, schedule: Q01DX009 (ip), vehicle: saline): 98 % of control
- T/C [4]: 106 % of control
- T/C (endpoint: mean survival time, dose: 200.0 mg/kg/injection, schedule: Q01DX009 (ip), vehicle: saline): 111 % of control
- T/C [5]: 104 % of control
- T/C (endpoint: mean survival time, dose: 400.0 mg/kg/injection, schedule: Q01DX009 (ip), vehicle: saline): 93 % of control
- T/C [6]: 101 % of control

Structure (SMILES): OC1OC2COC(c3ccccc3)OC2C(O)C1O (centres undefined)
- T/C (endpoint: median survival time, dose: 25.0 mg/kg/injection, schedule: Q01DX009 (ip), vehicle: water): 106 % of control
- T/C (endpoint: median survival time, dose: 50.0 mg/kg/injection, schedule: Q01DX009 (ip), vehicle: water): 106 % of control
- T/C (endpoint: median survival time, dose: 100.0 mg/kg/injection, schedule: Q01DX009 (ip), vehicle: water): 97 % of control
- T/C (endpoint: median survival time, dose: 200.0 mg/kg/injection, schedule: Q01DX009 (ip), vehicle: water): 100 % of control
- T/C (endpoint: median survival time, dose: 400.0 mg/kg/injection, schedule: Q01DX009 (ip), vehicle: water): 101 % of control
- T/C (endpoint: median survival time, dose: 800.0 mg/kg/injection, schedule: Q01DX009 (ip), vehicle: water): 96 % of control

Structure (SMILES): CCOP(=O)(OCC)Oc1cc(C)c(N(C)C)c(C)c1
- T/C [7]: 101 % of control
- T/C [8]: 90 % of control
